Among the data in patent US20240228458A1, “PYRIMIDINE DERIVATIVE HAVING PROTEIN KINASE INHIBITORY ACTIVITY, AND THERAPEUTIC PHARMACEUTICAL COMPOSITION COMPRISING SAME” (THERAPEX CO., LTD., priority 2021, published 2024) are GI50 values, retold here.

What all share (format): cell-based
For test [1], the system named is Ba/F3 cells expressing del19/T790M/C797S (EGFR-DTC). Briefly: Growth inhibition (GI50) of Ba/F3 cells expressing del19/T790M/C797S (EGFR-DTC), Celltiter glo. The conditions noted are these: Mus musculus, BaF3, 72 h. An outline of the steps:
(§1)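 We seed Ba/F3 transfectants at 100,000 cells/ml, dose them with ten 4-fold compound dilutions (2 mM top stock, 0.5% DMSO) after 4 h, and culture for 72 h at 37 °C. CellTiter-Glo then reports viable cell number, from which the GI50 is fitted.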
For orientation: In ATP-based viability assays light output follows the ATP content of the culture.

Test [2] has as its system Ba/F3 cells expressing del19/T790M (EGFR-DT). The experiment in a line: Growth inhibition (GI50) of Ba/F3 cells expressing del19/T790M (EGFR-DT), Celltiter glo. The conditions noted are these: Mus musculus, BaF3, 72 h. In short, it runs like this:
as §1

In test [3] the test system is Ba/F3 cells expressing EGFR-wt. The experiment in a line: Growth inhibition (GI50) of Ba/F3 cells expressing EGFR-wt, Celltiter glo. The conditions noted are these: Mus musculus, BaF3, 72 h. An outline of the steps: as §1
For another test, the system named is parental Ba/F3 cell line. The experiment in a line: Growth inhibition (GI50) of the parental Ba/F3 cell line (not introduced with EGFR variants), Celltiter glo. The conditions noted are these: Mus musculus, BaF3, 72 h, parental Ba/F3 cells. An outline of the steps: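 Viable cell count by CellTiter-Glo after 72 h at 37 °C gave GI50 values (μM, 50% growth inhibition). Cells lacking EGFR variants were seeded at 100,000 cells/ml and dosed 4 h later with 4-fold serial dilutions from a 2 mM stock, 0.5% DMSO.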

In test [4] the test system is Ba/F3 cells expressing L858R/T790M/C797S (EGFR-LTC). The experiment in a line: Growth inhibition (GI50) of Ba/F3 cells expressing L858R/T790M/C797S (EGFR-LTC), Celltiter glo. The conditions noted are these: Mus musculus, BaF3, 72 h. An outline of the steps:
as §1

Test [5] has as its system Ba/F3 cells expressing L858R/T790M (EGFR-LT). The experiment in a line: Growth inhibition (GI50) of Ba/F3 cells expressing L858R/T790M (EGFR-LT), Celltiter glo. The conditions noted are these: Mus musculus, BaF3, 72 h. In short, it runs like this: as §1

Turning to `COc1ccc(NS(C)(=O)=O)c(Nc2nc(Nc3cc(Cl)c(N4CCC(N5CCN(C)CC5)CC4)cc3Cl)ncc2Cl)c1` [Example 202, N-(2-((5-chloro-2-((2,5-dichloro-4-(4-(4-methylpiperazin-1-yl)piperidin-1-yl)phenyl)amino)pyrimidin-4-yl)amino)-4-methoxyphenyl)methanesulfonamide], the GI50 in test [1] fell in the range of 25 to 100 nM; in test [2], 1 to 25 nM; in test [3], 100 to 500 nM; with parental Ba/F3 cell line it was 100 to 500 nM; in test [4] it was 25 to 100 nM; in test [5], 25 to 100 nM.

Regarding `CCc1cc(Nc2ncc(Cl)c(Nc3cc(OC)ccc3NS(C)(=O)=O)n2)c(OC)cc1N1CCC(N2CCN(C)CC2)CC1` [Example 203, N-(2-((5-chloro-2-((5-ethyl-2-methoxy-4-(4-(4-methylpiperazin-1-yl)piperidin-1-yl)phenyl)amino)pyrimidin-4-yl)amino)-4-methoxyphenyl)methanesulfonamide], the GI50 in test [1] fell in the range of 25 to 100 nM; in test [2], 1 to 25 nM; in test [3], 500 to 2000 nM; in the test on parental Ba/F3 cell line, 2000 to 10000 nM; in test [4] it was 25 to 100 nM; in test [5], 100 to 500 nM.

As to `COc1ccc(NS(C)(=O)=O)c(Nc2nc(Nc3cc(C)c(N4CCC(N5CCCN(C)CC5)CC4)cc3OC)ncc2Cl)c1` [Example 204, N-(2-((5-chloro-2-((2-methoxy-5-methyl-4-(4-(4-methyl-1,4-diazepan-1-yl)piperidin-1-yl)phenyl)amino)pyrimidin-4-yl)amino)-4-methoxyphenyl)methanesulfonamide], the GI50 was in the range of 1 to 25 nM in test [1]; 1 to 25 nM in test [2]; 25 to 100 nM in test [3]; 2000 to 10000 nM in the test on parental Ba/F3 cell line; 25 to 100 nM in test [4]; 25 to 100 nM in test [5].

With `CN1CCN(C2CCN(c3cc(Cl)c(Nc4ncc(Cl)c(Nc5cc6c(cc5NS(C)(=O)=O)CCO6)n4)cc3Cl)CC2)CC1` [Example 205, N-(6-((5-chloro-2-((2,5-dichloro-4-(4-(4-methylpiperazin-1-yl)piperidin-1-yl)phenyl)amino)pyrimidin-4-yl)amino)-2,3-dihydrobenzofuran-5-yl)methanesulfonamide], the GI50 in test [1] was in the range of 1 to 25 nM; in test [2], 1 to 25 nM; in test [3] it was 25 to 100 nM; in the test on parental Ba/F3 cell line, 2000 to 10000 nM; in test [4] it was 1 to 25 nM; in test [5] it was 1 to 25 nM.

Consider `CCc1cc(Nc2ncc(Cl)c(Nc3cc4c(cc3NS(C)(=O)=O)CCO4)n2)c(OC)cc1N1CCC(N2CCN(C)CC2)CC1` [Example 206, N-(6-((5-chloro-2-((5-ethyl-2-methoxy-4-(4-(4-methylpiperazin-1-yl)piperidin-1-yl)phenyl)amino)pyrimidin-4-yl)amino)-2,3-dihydrobenzofuran-5-yl)methanesulfonamide], for which the concentration for 50% growth inhibition (GI50) in test [1] was in the range of 1 to 25 nM; in test [2], 1 to 25 nM; in test [3] it was 100 to 500 nM; with parental Ba/F3 cell line, 2000 to 10000 nM; in test [4], 25 to 100 nM; in test [5], 1 to 25 nM.

`COc1cc(N2CCC(N3CCNCC3)CC2)c(C)cc1Nc1ncc(Cl)c(Nc2cc3c(cc2NS(C)(=O)=O)CCO3)n1` [Example 207, N-(6-((5-chloro-2-((2-methoxy-5-methyl-4-(4-(piperazin-1-yl)piperidin-1-yl)phenyl)amino)pyrimidin-4-yl)amino)-2,3-dihydrobenzofuran-5-yl)methanesulfonamide]: the GI50 in test [1] is 25 to 100 nM; in test [2] it was 25 to 100 nM; in test [3], 100 to 500 nM; with parental Ba/F3 cell line it was 2000 to 10000 nM; in test [4], 25 to 100 nM; in test [5], 1 to 25 nM.

By GI50 is commonly meant the concentration giving 50% growth inhibition.
